Test results published in article PMC4020744, “Modification, Biological Evaluation and 3D QSAR Studies of Novel 2-(1,3-Diaryl- 4,5-Dihydro-1H-Pyrazol-5-yl)Phenol Derivatives as Inhibitors of B-Raf Kinase” (PLoS ONE, 2014).

Assays:
[1] = system: WM266.4 human melanoma cell line; experiment: Anti-proliferation assay (MTT); assay type: cell-based; settings: WM 266-4, WM266.4 human melanoma cell growth, 24 h
Procedure: WM266.4 melanoma cells were cultured in DMEM/10% fetal bovine serum, in 5% CO2 water saturated atmosphere at 37°C. Cell suspensions (10000/mL) were prepared and 100 µL/well dispensed into 96-well plates (Costar) giving 1000 cells/well. The plates were returned to the incubator for 24h to allow the cells to reattach. These compounds were initially prepared at 20mM in DMSO. Aliquots (200 µL) were diluted into 20mL culture medium giving 200 µM, and 10 serial dilutions of 3x prepared. Aliquots (100 µL) of each dilution were added to the wells, giving doses ranging from 100 µM to 0.005 µM. After a further incubated at 37°C for 24h in a humidified atmosphere with 5% CO2, the cell viability was assessed by the conventional 3-(4,5-dimethylthiazol-2-yl)-2,5-diphenyltetrazolium bromide (MTT) reduction assay and carried out strictly according to the manufacturer instructions (Sigma). The absorbance at 590nm was recorded using LX300 Epson Diagnostic micro-plate reader. Then GI50 was calculated using SPSS 13.0 software.

B-Raf^V600E = experiment: V600E mutant B-Raf kinase inhibitory assay (B-Raf^V600E mediated MEK phosphorylation)
Sequence of B-Raf^V600E (P28028 whole entry V585E): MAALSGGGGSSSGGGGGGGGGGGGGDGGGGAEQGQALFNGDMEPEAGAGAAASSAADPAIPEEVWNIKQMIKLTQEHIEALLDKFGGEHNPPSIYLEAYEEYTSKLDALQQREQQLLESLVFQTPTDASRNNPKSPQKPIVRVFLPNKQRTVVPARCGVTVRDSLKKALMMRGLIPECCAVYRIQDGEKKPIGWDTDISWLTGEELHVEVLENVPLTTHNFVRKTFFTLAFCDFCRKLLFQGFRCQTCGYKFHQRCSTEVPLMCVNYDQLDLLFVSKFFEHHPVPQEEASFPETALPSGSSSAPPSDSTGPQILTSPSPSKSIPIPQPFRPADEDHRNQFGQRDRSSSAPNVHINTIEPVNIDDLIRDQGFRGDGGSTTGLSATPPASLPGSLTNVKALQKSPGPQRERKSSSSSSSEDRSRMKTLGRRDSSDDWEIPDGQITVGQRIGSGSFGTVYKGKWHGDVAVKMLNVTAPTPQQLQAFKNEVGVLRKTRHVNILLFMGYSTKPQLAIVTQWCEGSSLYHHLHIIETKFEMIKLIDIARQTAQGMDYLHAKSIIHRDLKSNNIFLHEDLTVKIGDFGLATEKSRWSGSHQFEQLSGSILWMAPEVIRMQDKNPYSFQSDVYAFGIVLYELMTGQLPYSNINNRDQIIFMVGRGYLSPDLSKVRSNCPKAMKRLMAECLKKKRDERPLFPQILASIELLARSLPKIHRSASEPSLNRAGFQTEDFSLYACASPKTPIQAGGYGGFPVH
Procedure: Briefly, 7.5 ng Mouse Full-Length GST-tagged BRAF^V600E (Invitrogen, PV3849) was preincubated at room temperature for 1 h with 1 µL drug and 4 µL assay dilution buffer. The kinase assay was initiated when 5 µL of a solution containing 200 ng recombinant human full length, N-terminal His-tagged MEK1 (Invitrogen), 200 µM ATP, and 30 mM MgCl2 in assay dilution buffer was added. The kinase reaction was allowed to continue at room temperature for 25 min and was then quenched with 5 µL 5x protein denaturing buffer (LDS) solution. Protein was further denatured by heating for 5 min at 70°C. 10 µL of each reaction was loaded into a 15-well, 4–12% precast NuPage gel (Invitrogen) and run at 200 V, and upon completion, the front, which contained excess hot ATP, was cut from the gel and discarded. The gel was then dried and developed onto a phosphor screen.

SMILES	GI50 [1]	melting point	IC50 (B-Raf^V600E)
Oc1ccc(Cl)cc1C1CC(c2ccc(Cl)cc2)=NN1c1ccccc1 (centres unmarked) [Compound C8, 4-chloro-2-(3-(4-chlorophenyl)-1-phenyl-4,5-dihydro-1H-pyrazol-5-yl)phenol]	4390 ± 310 nM	68 to 71 °C	2660 ± 190 nM
Oc1c(Cl)cc(Cl)cc1C1CC(c2ccc(Cl)cc2)=NN1c1ccccc1 (centres unmarked) [Compound C20, 2,4-dichloro-6-(3-(4-chlorophenyl)-1-phenyl-4,5-dihydro-1H-pyrazol-5-yl)phenol]	3590 ± 280 nM	42 to 43 °C	2140 ± 190 nM
Oc1c(Cl)cc(Cl)cc1C1CC(c2ccc(Br)cc2)=NN1c1ccccc1 (centres unmarked) [Compound C21, 2-(3-(4-bromophenyl)-1-phenyl-4,5-dihydro-1H-pyrazol-5-yl)-4,6-dichlorophenol]	5130 ± 490 nM	56 to 59 °C	3120 ± 260 nM
Oc1ccc(Br)cc1C1CC(c2ccc(F)cc2)=NN1c1ccccc1 (centres unmarked) [Compound C13, 4-bromo-2-(3-(4-fluorophenyl)-1-phenyl-4,5-dihydro-1H-pyrazol-5-yl)phenol]	4450 ± 410 nM	73 to 76 °C	2730 ± 190 nM
Cc1ccc(C2=NN(c3ccccc3)C(c3cc(Cl)ccc3O)C2)cc1 (centres unmarked) [Compound C10, 4-chloro-2-(1-phenyl-3-(p-tolyl)-4,5-dihydro-1H-pyrazol-5-yl)phenol]	5370 ± 490 nM	43 to 46 °C	3240 ± 280 nM
COc1ccc(C2=NN(c3ccccc3)C(c3cc(Cl)ccc3O)C2)cc1 (centres unmarked) [Compound C11, 4-chloro-2-(3-(4-methoxyphenyl)-1-phenyl-4,5-dihydro-1H-pyrazol-5-yl)phenol]	2430 ± 160 nM	49 to 51 °C	1070 ± 80 nM
Oc1ccccc1C1CC(c2ccc(F)cc2)=NN1c1ccccc1 (centres unmarked) [Compound C1, 2-(3-(4-fluorophenyl)-1-phenyl-4,5-dihydro-1H-pyrazol-5-yl)phenol]	> 50000 nM	38 to 41 °C	71900 ± 6770 nM
Oc1ccc(Br)cc1C1CC(c2ccc(Br)cc2)=NN1c1ccccc1 (centres unmarked) [Compound C15, 4-bromo-2-(3-(4-bromophenyl)-1-phenyl-4,5-dihydro-1H-pyrazol-5-yl)phenol]	2650 ± 190 nM	104 to 106 °C	1290 ± 100 nM
Oc1c(Cl)cc(Cl)cc1C1CC(c2ccc(Cl)c(Cl)c2)=NN1c1ccccc1 (centres unmarked) [Compound C24, 2,4-dichloro-6-(3-(3,4-dichlorophenyl)-1-phenyl-4,5-dihydro-1H-pyrazol-5-yl)phenol]	2340 ± 170 nM	63 to 65 °C	970 ± 90 nM
C#Cc1cccc(Nc2ncnc3cc(OCCOC)c(OCCOC)cc23)c1 [Erlotinib, reference compound]	8120 ± 750 nM	–	–
Cc1ccc(C2=NN(c3ccccc3)C(c3cc(Cl)cc(Cl)c3O)C2)cc1 (centres unmarked) [Compound C22, 2,4-dichloro-6-(1-phenyl-3-(p-tolyl)-4,5-dihydro-1H-pyrazol-5-yl)phenol]	23900 ± 1990 nM	29 to 31 °C	7370 ± 650 nM
Oc1ccc(Br)cc1C1CC(c2ccc(Cl)cc2)=NN1c1ccccc1 (centres unmarked) [Compound C14, 4-bromo-2-(3-(4-chlorophenyl)-1-phenyl-4,5-dihydro-1H-pyrazol-5-yl)phenol]	3690 ± 320 nM	88 to 91 °C	2200 ± 200 nM
COc1ccc(C2=NN(c3ccccc3)C(c3cc(Cl)cc(Cl)c3O)C2)cc1 (centres unmarked) [Compound C23, 2,4-dichloro-6-(3-(4-methoxyphenyl)-1-phenyl-4,5-dihydro-1H-pyrazol-5-yl)phenol]	2380 ± 230 nM	33 to 34 °C	1010 ± 80 nM
Cc1ccc(C2=NN(c3ccccc3)C(c3cc(Br)ccc3O)C2)cc1 (centres unmarked) [Compound C16, 4-bromo-2-(1-phenyl-3-(p-tolyl)-4,5-dihydro-1H-pyrazol-5-yl)phenol]	4550 ± 440 nM	59 to 63 °C	2780 ± 210 nM
Oc1ccc(Cl)cc1C1CC(c2ccc(F)cc2)=NN1c1ccccc1 (centres unmarked) [Compound C7, 4-chloro-2-(3-(4-fluorophenyl)-1-phenyl-4,5-dihydro-1H-pyrazol-5-yl)phenol]	4260 ± 360 nM	60 to 63 °C	2600 ± 230 nM
Cc1ccc(C2=NN(c3ccccc3)C(c3ccccc3O)C2)cc1 (centres unmarked) [Compound C4, 2-(1-phenyl-3-(p-tolyl)-4,5-dihydro-1H-pyrazol-5-yl)phenol]	2850 ± 230 nM	32 to 34 °C	1490 ± 110 nM
Oc1ccc(Cl)cc1C1CC(c2ccc(Br)cc2)=NN1c1ccccc1 (centres unmarked) [Compound C9, 2-(3-(4-bromophenyl)-1-phenyl-4,5-dihydro-1H-pyrazol-5-yl)-4-chlorophenol]	2730 ± 210 nM	90 to 93 °C	1370 ± 130 nM
Oc1c(Cl)cc(Cl)cc1C1CC(c2ccc(F)cc2)=NN1c1ccccc1 (centres unmarked) [Compound C19, 2,4-dichloro-6-(3-(4-fluorophenyl)-1-phenyl-4,5-dihydro-1H-pyrazol-5-yl)phenol]	3760 ± 320 nM	37 to 39 °C	2260 ± 190 nM

Now those with a lower GI50 [1], led by results:

GI50 [1]	melting point	IC50 (B-Raf^V600E)	SMILES
2090 ± 180 nM	65 to 68 °C	630 ± 60 nM	Oc1ccccc1C1CC(c2ccc(Br)cc2)=NN1c1ccccc1 (centres unmarked) [Compound C3, 2-(3-(4-bromophenyl)-1-phenyl-4,5-dihydro-1H-pyrazol-5-yl)phenol]
2030 ± 180 nM	65 to 67 °C	570 ± 50 nM	COc1ccc(C2=NN(c3ccccc3)C(c3cc(Br)ccc3O)C2)cc1 (centres unmarked) [Compound C17, 4-bromo-2-(3-(4-methoxyphenyl)-1-phenyl-4,5-dihydro-1H-pyrazol-5-yl)phenol]
2010 ± 130 nM	54 to 56 °C	500 ± 40 nM	Oc1ccccc1C1CC(c2ccc(Cl)cc2)=NN1c1ccccc1 (centres unmarked) [Compound C2, 2-(3-(4-chlorophenyl)-1-phenyl-4,5-dihydro-1H-pyrazol-5-yl)phenol]
1990 ± 130 nM	77 to 79 °C	500 ± 50 nM	Oc1ccc(Cl)cc1C1CC(c2ccc(Cl)c(Cl)c2)=NN1c1ccccc1 (centres unmarked) [Compound C12, 4-chloro-2-(3-(3,4-dichlorophenyl)-1-phenyl-4,5-dihydro-1H-pyrazol-5-yl)phenol]
1980 ± 170 nM	35 to 37 °C	510 ± 50 nM	COc1ccc(C2=NN(c3ccccc3)C(c3ccccc3O)C2)cc1 (centres unmarked) [Compound C5, 2-(3-(4-methoxyphenyl)-1-phenyl-4,5-dihydro-1H-pyrazol-5-yl)phenol]
1880 ± 150 nM	95 to 98 °C	340 ± 20 nM	Oc1ccc(Br)cc1C1CC(c2ccc(Cl)c(Cl)c2)=NN1c1ccccc1 (centres unmarked) [Compound C18, 4-bromo-2-(3-(3,4-dichlorophenyl)-1-phenyl-4,5-dihydro-1H-pyrazol-5-yl)phenol]
1750 ± 120 nM	57 to 59 °C	150 ± 10 nM	Oc1ccccc1C1CC(c2ccc(Cl)c(Cl)c2)=NN1c1ccccc1 (centres unmarked) [Compound C6, 2-(3-(3,4-dichlorophenyl)-1-phenyl-4,5-dihydro-1H-pyrazol-5-yl)phenol]
210 ± 20 nM	–	–	CCCS(=O)(=O)Nc1ccc(F)c(C(=O)c2c[nH]c3ncc(-c4ccc(Cl)cc4)cc23)c1F [Vemurafenib, reference compound]
